Where “and” joins values, the source holds several entries; their conditions need not be identical. Equal values may be shown once.
Key:
Shiga toxin 2 = target: T1, Shiga toxin 2 (Escherichia coli O157:H7, UniProt P09385+P09386); test: E. coli 0.157:H7 Shiga Toxin SOP - stx2 screening assay; assay type: functional
T1 sequence (P09385 whole entry): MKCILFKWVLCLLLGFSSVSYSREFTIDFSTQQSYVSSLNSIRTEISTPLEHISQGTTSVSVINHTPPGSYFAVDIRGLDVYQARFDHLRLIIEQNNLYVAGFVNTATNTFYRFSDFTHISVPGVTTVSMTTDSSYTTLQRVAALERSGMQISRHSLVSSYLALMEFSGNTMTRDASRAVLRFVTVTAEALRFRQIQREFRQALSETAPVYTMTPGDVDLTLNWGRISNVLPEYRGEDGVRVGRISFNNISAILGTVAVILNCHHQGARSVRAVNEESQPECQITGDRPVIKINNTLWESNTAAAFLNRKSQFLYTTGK
T1 sequence (P09386 whole entry): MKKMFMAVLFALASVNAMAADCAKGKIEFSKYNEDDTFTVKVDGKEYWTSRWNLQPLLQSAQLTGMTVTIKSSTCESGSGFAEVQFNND

[1] = target: Protein translocase subunit SecA (Escherichia coli (strain K12), UniProt P10408); test: Assay to Identify E. coli SecA ATPase Inhibitors; assay type: functional
Histidine--tRNA ligase [2] = target: T2, Histidine--tRNA ligase (Leishmania infantum, UniProt A4I591); test: Leishmania infantum Histidine tRNA synthetase (LdHisRS); assay type: functional
T2 sequence (A4I591 whole entry): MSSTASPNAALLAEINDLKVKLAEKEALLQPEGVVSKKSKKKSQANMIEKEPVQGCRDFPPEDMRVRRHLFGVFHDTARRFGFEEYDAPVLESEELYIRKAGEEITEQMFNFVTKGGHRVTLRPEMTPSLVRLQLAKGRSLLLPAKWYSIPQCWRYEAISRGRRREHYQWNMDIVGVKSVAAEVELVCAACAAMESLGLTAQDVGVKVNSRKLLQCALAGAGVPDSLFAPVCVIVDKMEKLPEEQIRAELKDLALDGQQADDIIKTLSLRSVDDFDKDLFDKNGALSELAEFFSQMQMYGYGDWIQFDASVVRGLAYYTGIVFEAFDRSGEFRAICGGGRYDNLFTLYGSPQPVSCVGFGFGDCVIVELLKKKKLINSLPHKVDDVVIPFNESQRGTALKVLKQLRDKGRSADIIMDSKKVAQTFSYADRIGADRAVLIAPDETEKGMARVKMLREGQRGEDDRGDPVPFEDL

Lysine--tRNA ligase = Lysine--tRNA ligase (Plasmodium falciparum (isolate 3D7), UniProt Q8IDJ8); test: Pf-KRS-1 (Lysyl-RNA Synthetase-1, KRS-1, cytosolic KRS) from Plasmodium falciparum. Inhibitor assay, 384 well plate, luminescence read.; assay type: functional
[3] = To identify inhibition of the IFN signalling (Jak-Stat) pathway via expression of an eGFP reporter gene under the control of an IFN-stimulated response element (ISRE) containing MxA promoter.; assay type: functional, Homo sapiens
[4] = In vitro enzyme assay to detect hydrolysis of chlorophenol red-beta-D-[…] directly proportional to the number of Toxoplasma stably expressing beta-galactosidase; assay type: functional, organism-based, Toxoplasma gondii; conditions: Toxoplasma gondii
Histidine--tRNA ligase [5] = target: T3, Histidine--tRNA ligase (Trypanosoma cruzi (strain CL Brener), UniProt Q4DA54); test: Trypanosoma cruzi histidyl tRNA synthetase (Tc-HisRS); assay type: functional
T3 sequence (Q4DA54 whole entry): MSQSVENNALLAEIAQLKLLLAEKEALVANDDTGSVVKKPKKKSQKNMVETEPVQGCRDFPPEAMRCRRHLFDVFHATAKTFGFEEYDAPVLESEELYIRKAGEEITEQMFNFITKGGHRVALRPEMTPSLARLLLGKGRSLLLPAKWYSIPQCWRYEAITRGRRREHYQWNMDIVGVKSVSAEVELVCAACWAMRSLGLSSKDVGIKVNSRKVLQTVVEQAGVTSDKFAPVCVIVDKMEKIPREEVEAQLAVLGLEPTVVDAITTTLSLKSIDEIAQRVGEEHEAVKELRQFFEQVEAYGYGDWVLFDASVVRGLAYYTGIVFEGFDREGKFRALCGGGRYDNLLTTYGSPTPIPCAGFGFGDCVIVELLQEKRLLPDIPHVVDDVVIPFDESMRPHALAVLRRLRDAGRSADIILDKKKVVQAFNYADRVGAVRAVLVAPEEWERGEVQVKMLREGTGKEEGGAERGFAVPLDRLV

ClpP1P2 = ClpP1P2 (Mycobacterium tuberculosis (strain ATCC 25618 / H37Rv), UniProt P9WPC3+P9WPC5); test: in vitro assay to detect presence of AMC directly proportional to the activity of ClpP1P2. GHDDI collaboration.; assay type: functional
[6] = target: T4, Ubiquitin-activating enzyme e1, putative (Leishmania donovani (strain BPK282A1), UniProt E9BSI1); test: Leishmania donovani Ubiquitin Activating Enzyme (LdE1); assay type: functional
T4 sequence (E9BSI1 whole entry): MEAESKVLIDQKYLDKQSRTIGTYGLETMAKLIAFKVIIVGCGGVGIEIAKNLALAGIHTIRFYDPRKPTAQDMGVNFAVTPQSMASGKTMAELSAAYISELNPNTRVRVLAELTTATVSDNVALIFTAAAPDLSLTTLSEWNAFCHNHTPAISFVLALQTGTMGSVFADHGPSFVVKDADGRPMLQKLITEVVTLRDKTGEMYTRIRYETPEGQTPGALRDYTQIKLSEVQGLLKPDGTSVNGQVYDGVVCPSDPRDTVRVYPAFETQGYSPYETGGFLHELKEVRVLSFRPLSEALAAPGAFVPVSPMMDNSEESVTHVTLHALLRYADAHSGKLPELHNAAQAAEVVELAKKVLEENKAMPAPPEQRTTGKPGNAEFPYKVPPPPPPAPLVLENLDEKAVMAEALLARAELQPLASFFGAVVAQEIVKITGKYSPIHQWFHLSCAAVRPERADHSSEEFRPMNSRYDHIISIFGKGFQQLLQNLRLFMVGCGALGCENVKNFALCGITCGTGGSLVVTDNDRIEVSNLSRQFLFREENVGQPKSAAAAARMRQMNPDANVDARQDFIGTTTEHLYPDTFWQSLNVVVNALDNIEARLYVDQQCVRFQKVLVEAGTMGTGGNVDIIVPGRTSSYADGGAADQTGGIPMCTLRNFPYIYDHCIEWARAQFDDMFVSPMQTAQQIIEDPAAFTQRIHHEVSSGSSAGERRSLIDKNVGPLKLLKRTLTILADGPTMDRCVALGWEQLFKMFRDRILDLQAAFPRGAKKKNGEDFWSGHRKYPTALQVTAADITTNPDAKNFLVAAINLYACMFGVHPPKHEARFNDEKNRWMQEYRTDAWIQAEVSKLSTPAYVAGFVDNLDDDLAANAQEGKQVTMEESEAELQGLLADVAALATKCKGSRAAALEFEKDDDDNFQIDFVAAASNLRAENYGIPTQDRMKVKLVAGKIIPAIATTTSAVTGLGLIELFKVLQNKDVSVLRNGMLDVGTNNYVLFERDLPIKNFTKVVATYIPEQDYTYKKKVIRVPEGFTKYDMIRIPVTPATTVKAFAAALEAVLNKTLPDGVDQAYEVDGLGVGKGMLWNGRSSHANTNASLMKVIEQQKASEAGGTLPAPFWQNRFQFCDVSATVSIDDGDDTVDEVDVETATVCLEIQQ

Proteasome subunit beta = target: T5, Proteasome subunit beta (Trypanosoma cruzi, UniProt O96673); test: Trypanosoma cruzi proteasome chymotrypsin-like activity (TcProtChymo) assay.; assay type: functional
T5 sequence (O96673 whole entry): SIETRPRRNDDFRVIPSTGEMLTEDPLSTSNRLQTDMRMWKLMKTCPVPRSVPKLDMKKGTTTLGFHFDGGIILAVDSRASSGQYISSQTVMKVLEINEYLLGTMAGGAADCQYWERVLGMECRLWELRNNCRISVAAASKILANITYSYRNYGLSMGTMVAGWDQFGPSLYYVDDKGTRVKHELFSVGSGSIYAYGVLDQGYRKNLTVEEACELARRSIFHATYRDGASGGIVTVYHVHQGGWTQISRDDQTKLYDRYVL

[7] = Trypanosoma cruzi proteasome luciferase counter-screen; assay type: functional, N/A
[8] = microbe, parasite or virus in culture; conditions: Mycobacterium tuberculosis, 96 h, read-out: pIC50 (converted)
[9] = microbe, parasite or virus in culture; conditions: Mycobacterium tuberculosis, 72 h, read-out: pIC50 (converted)

Protein translocase subunit SecA, sequence (P10408 whole entry): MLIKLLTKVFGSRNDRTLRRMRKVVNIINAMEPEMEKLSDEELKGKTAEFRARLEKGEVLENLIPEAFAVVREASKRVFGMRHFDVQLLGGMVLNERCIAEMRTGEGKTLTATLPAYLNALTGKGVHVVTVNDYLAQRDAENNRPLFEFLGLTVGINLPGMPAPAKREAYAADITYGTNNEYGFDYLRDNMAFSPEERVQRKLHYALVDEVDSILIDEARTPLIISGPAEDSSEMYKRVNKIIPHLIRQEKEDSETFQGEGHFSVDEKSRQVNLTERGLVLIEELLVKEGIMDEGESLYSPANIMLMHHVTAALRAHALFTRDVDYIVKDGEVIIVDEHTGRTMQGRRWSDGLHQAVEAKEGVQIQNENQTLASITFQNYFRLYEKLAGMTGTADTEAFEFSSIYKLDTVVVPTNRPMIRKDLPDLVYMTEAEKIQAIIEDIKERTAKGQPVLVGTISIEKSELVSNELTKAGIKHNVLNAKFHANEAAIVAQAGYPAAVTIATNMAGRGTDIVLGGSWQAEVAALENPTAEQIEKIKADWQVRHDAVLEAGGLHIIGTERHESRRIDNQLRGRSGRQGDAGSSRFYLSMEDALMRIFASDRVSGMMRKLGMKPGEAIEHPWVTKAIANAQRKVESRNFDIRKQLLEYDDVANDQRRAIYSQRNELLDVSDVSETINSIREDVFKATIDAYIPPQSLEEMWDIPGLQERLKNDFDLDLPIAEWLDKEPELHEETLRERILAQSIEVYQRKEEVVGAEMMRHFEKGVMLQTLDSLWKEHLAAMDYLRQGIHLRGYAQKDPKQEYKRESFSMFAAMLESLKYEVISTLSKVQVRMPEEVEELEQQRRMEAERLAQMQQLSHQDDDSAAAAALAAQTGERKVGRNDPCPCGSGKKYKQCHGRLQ
Lysine--tRNA ligase, sequence (Q8IDJ8 whole entry): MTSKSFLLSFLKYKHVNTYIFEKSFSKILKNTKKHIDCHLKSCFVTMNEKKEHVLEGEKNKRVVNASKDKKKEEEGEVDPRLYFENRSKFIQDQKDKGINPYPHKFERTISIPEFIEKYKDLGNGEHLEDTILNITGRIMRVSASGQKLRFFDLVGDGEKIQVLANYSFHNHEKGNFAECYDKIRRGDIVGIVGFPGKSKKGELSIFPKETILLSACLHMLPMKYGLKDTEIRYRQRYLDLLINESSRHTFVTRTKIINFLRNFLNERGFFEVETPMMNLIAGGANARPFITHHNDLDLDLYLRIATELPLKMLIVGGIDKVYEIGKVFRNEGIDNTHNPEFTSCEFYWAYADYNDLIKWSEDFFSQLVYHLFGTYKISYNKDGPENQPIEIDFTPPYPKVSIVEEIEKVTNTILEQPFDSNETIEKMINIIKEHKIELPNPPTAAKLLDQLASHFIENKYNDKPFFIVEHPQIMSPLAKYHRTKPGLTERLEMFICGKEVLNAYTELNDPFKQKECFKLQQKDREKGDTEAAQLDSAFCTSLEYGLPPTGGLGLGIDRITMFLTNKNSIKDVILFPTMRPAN
ClpP1P2, sequence (P9WPC5 whole entry): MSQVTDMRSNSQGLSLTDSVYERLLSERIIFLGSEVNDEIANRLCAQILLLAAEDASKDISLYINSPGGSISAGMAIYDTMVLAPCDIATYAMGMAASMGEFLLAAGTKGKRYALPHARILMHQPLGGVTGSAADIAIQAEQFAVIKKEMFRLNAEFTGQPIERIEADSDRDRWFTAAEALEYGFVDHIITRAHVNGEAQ
ClpP1P2, sequence (P9WPC3 whole entry): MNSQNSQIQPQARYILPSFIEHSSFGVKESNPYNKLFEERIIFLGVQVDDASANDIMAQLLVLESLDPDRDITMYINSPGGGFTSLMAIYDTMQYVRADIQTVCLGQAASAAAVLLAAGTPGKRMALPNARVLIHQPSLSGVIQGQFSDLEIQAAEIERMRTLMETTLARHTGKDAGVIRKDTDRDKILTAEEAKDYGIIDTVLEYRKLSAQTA

SMILES: CC1(C)OCC(CNC(=O)c2cnn(-c3ccc(Cl)cc3)c2N)O1 (stereo unspecified)
- IC50 (Shiga toxin 2): > 100 µM
- IC50 [1]: > 100 µM

SMILES: Cc1cc(-c2nn(C)c(Cl)c2CN2Cc3ccccc3C(O)C2)no1 (stereo unspecified)
- IC50 (Shiga toxin 2): 41.5 µM and > 100 µM
- IC50 (Histidine--tRNA ligase [2]): 16700 nM and 20300 nM
- IC50 (Lysine--tRNA ligase): > 50.1 µM

SMILES: Cc1noc(NC(=O)c2ccc(Br)cc2)n1
- IC50 (Shiga toxin 2): > 100 µM
- pIC50 [3]: 4.648 and 4.809
- IC50 [4]: 9.76 µM

SMILES: Nc1cc(CCC2CN(Cc3ccc(C(=O)O)cc3)CCO2)ccn1 (stereo unspecified)
- IC50 (Shiga toxin 2): > 100 µM

SMILES: COc1ccc(C2CC(=O)Nc3nc(N4CCOCC4)sc32)c(OC)c1 (stereo unspecified)
- IC50 (Histidine--tRNA ligase [5]): 2.24 µM and 2.8 µM
- IC50 (ClpP1P2): > 100 µM
- IC50 [1]: > 100 µM and 33.8 µM
- IC50 (Histidine--tRNA ligase [2]): 231 nM and 259 nM and 280 nM
- IC50 [6]: > 100 µM
- IC50 (Lysine--tRNA ligase): > 50.1 µM

SMILES: Cc1nccn1-c1cccc(C2CCCN2S(=O)(=O)c2cn(C)cn2)n1 (stereo unspecified)
- IC50 (Shiga toxin 2): > 100 µM

SMILES: CN(Cc1ccsc1)C(=O)CS(=O)(=O)Cc1ccc(Cl)c(Cl)c1
- IC50 (Shiga toxin 2): > 100 µM

SMILES: O=C1CC(c2ccccc2C(F)(F)F)c2sc(N3CCOCC3)nc2N1 (stereo unspecified)
- IC50 (Histidine--tRNA ligase [5]): 10.8 µM and 16.3 µM
- IC50 (ClpP1P2): > 100 µM
- IC50 [1]: > 100 µM
- IC50 [6]: > 100 µM
- IC50 (Lysine--tRNA ligase): > 50.1 µM

SMILES: Cc1noc(NC(=O)c2ccc(OC(F)(F)F)cc2)n1
- IC50 (Shiga toxin 2): > 100 µM
- pIC50 [3]: 5.092
- IC50 (Proteasome subunit beta): 4.36 µM and 4.71 µM
- IC50 [4]: 4.96 µM
- pIC50 [7]: 5.158 and 4.98
- IC50 [8]: 36.6 µM
- IC50 [9]: 20 µM

SMILES: COc1cccc(C2CC(=O)Nc3nc(N4CCOCC4)sc32)c1OC (stereo unspecified)
- IC50 (Histidine--tRNA ligase [5]): 5.22 µM and 4.5 µM
- IC50 [1]: 10.6 µM and 8.05 µM
- IC50 (Histidine--tRNA ligase [2]): 1200 nM and 876 nM
- IC50 [6]: 85.8 µM and 91 µM
- IC50 (Lysine--tRNA ligase): > 50.1 µM

SMILES: COCCN1CCN(CCS(=O)(=O)C(F)(F)F)CC1C (stereo unspecified)
- IC50 (Shiga toxin 2): 32.8 µM and 33 µM

SMILES: CC(C)(C)NC(=O)NC(=O)CNC(C)(C)c1ccc2c(c1)OCCO2
- IC50 (Shiga toxin 2): > 100 µM

SMILES: COc1ccc(OC)c(C2CC(=O)Nc3nc(N4CCOCC4)sc32)c1 (stereo unspecified)
- IC50 (Histidine--tRNA ligase [5]): 3.5 µM and 4.23 µM
- IC50 (ClpP1P2): > 100 µM
- IC50 [1]: > 100 µM and 34.1 µM
- IC50 (Histidine--tRNA ligase [2]): 373 nM and 317 nM
- IC50 [6]: > 100 µM
- IC50 (Lysine--tRNA ligase): > 50.1 µM

SMILES: Cc1noc(NC(=O)c2ccc(Br)s2)n1
- IC50 (Shiga toxin 2): > 100 µM
- IC50 [8]: 42.5 µM
- IC50 [9]: 32.8 µM

SMILES: CCOc1ccnc(N2CCN(C(=O)c3cccc(C#N)c3)CC2)n1
- IC50 (Shiga toxin 2): > 100 µM

SMILES: CN(C)S(=O)(=O)N1CCCC(c2cccc(Cc3ccccc3)n2)C1 (stereo unspecified)
- IC50 (Shiga toxin 2): > 100 µM
- pIC50 [3]: 4.718 and 4.613

SMILES: O=C1CN(Cc2ccc(-c3ccccc3C(=O)O)cc2)CCN1
- IC50 (Shiga toxin 2): > 100 µM

SMILES: NCc1cn(-c2ccccc2C(=O)NCc2cccc(Cl)c2)cn1
- IC50 (Shiga toxin 2): > 100 µM

SMILES: O=S(=O)(c1ccccc1)N1CCCCC1c1cc[nH]n1 (stereo unspecified)
- IC50 (Shiga toxin 2): > 100 µM
